Assay results from paper PMC12494543, “Identification of ALKBH6 as a nucleotide demethylase with a distinct substrate preference” (The Journal of Biological Chemistry, 2025).
Values belong to the molecule of their own block, whether it stands above or below them.

How the values were obtained:
ALKBH6 [1] = assay: ALKBH6 knockdown by shRNA, qPCR; assay type: cell-based, human; conditions: MCF7 cells, 48 h after transfection, vs Sh-control
Description: The GFP-tagged ALKBH6 expression plasmids were constructed by cutting the PCR-amplified WT ALKBH6 with XhoI and EcoRI, and then cloned in-frame and upstream of the sequence encoding the GFP pEGFP-N1 (Clontech). ALKBH6 shRNA constructs were generated using reported sequences (shALKBH6#1 5′ AGGAGTATTTGCTTCGACA 3′, shALKBH6#2 5′ […] 3′) and cloned into the pSilencer 2.1-U6 puro shRNA vector. All the shRNA constructs were confirmed by sequencing (Fig. S6). For negative control, pSilencer 2.1-U6 puro vector was used.
MCF7 cells were maintained in Dulbecco's modified Eagle's medium (DMEM) with 10% fetal bovine serum at 37 °C in a humidified air containing 5% CO2. Stable ALKBH6 knockdown cell line was generated by inserting the target sequence for ALKBH6 or the scramble control into the pSilencer2.puro (pSil) vector (Ambion) to form short hairpin RNAs for RNAi. For plasmid transfection in MCF7 cells, cells were suspended in DMEM without fetal bovine serum or antibiotics at a concentration of 1 × 10^7 cells/ml. A volume of 0.1 ml was transferred to a sterile electroporation cuvette (Bio-Rad Gene Pulser cuvette) and kept at room temperature for 5 min in the presence of 15 μg plasmid. Electroporation was performed using the Gene Pulser Xcell System (Bio-Rad) with 220 V/cm, 950 μF capacitance, and infinite resistance. […]

ALKBH6 E115 mutant = biological target: T1, ALKBH6 E115 mutant (Homo sapiens, UniProt Q3KRA9, E115A); assay: FDH-coupled formaldehyde release demethylation assay; assay type: biochemical; conditions: substrate 500 μM
T1 construct: His-tag; made in house
Procedure: (§1) NMPs including 1meAMP (Jena Bioscience, NU-1029-1,) 7meGMP (Jena Bioscience, NU-1135S), 6me-AMP (Sigma, M2780) were purchased. N-methylated deoxy-NMPs were prepared by methylating chemically synthesized 30-mer oligonucleotide containing either dA, dG, dC, or dT by MMS (5%, v/v) (0.59 M) MMS (Sigma, 129925) and purified as described before ([17]). The oligonucleotides were digested with nuclease P1 (NEB) at 37 °C for 4 h to produce deoxy-NMPs. After heat inactivating the nuclease, dNMPs were purified by HPLC and used for the demethylation reaction. N-methylated NMPs were purified similarly, using RNA as the starting material. For the demethylation reaction, ALKBH6 (1 μM) and me-dNMPs (1 mM) were mixed in the dioxygenase reaction buffer and incubated at 37 °C for 30 min. Formaldehyde release was detected by FDH-coupled DNA repair assay as described before ([32], [33]). Briefly, 1 mM NAD+ and 0.01 U FDH were added to the dioxygenase reaction buffer containing methylated nucleotide and ALKBH6. NADH generated was detected by the characteristic absorption peak (340 nm) using a 96-well multimode reader (Synergy, Biotek Instrument). Formaldehyde production was quantified from the standard curve and the initial velocities were determined using various substrate concentrations. The results were plotted and analyzed using GraphPad Prism.

ALKBH6 [2] = biological target: T2, ALKBH6 (Homo sapiens, UniProt Q3KRA9); assay: as above; assay type: biochemical
T2 construct: His-tag; made in house
Procedure: as §1

ALKBH6 Y120A [3] = biological target: T3, ALKBH6 Y120A (Homo sapiens, UniProt Q3KRA9, Y120A); assay: Demethylation assay by HPLC analysis; assay type: biochemical; conditions: substrate 500 μM
T3 construct: His-tag; made in house
Procedure: (§2) Following ALKBH6-mediated demethylation, NMPs and dNMPs were analyzed in an HPLC system (Shimadzu) equipped with a reversed-phase Shim-pack GIST C18 5 μm separation column (250 × 4.6 mm). For majority of the nucleotides including 1me-AMP, 1me-dAMP, 7me-dGMP, 6me-AMP, 7me-GMP, 3me-dCMP, dAMP, dCMP AMP, GMP, the column was equilibrated with mobile phase A (50 mM ammonium acetate) and mobile phase B (50 mM ammonium acetate, 50% of acetonitrile and 0.1% trifluoroacetic acid. For dGMP, different mobile phase A (50 mM ammonium acetate, 3% methanol, pH-5.0) and mobile phase B (methanol) were used. The peaks were identified based on the elution time of the standards (Fig. S9) purchased from Sigma and further analyzed using LabSolutions software (www.shimadzu.com) and analyzed by mass spectrometry.

ALKBH6 [4] = biological target: T2, ALKBH6; assay: Demethylation assay by HPLC analysis; assay type: biochemical; conditions: substrate 250 and 500 μM, 30 min
Procedure: as §2

ALKBH6 Y120A [5] = biological target: T3, ALKBH6 Y120A; assay: Thermal shift analysis (DSF, SYPRO Orange); assay type: binding
Procedure: (§3) All the experiments were performed in Eco Real-Time PCR system as described before ([55]). Purified recombinant His-tag ALKBH6 or ALKBH6-Y120A (5 μM) was incubated with varying concentrations (0–50 μM) of 7methyl-GMP in binding buffer (50 mM Hepes pH7.6, and 75 mM KCl). SYPRO Orange was added to the reaction (20 μl) and melting derivatives (-dRFU/dT) of fluorescence emission were determined by measuring the fluorescence with temperature increment of 0.1 °C from 40 °C to 100 °C. The ΔTm was calculated by subtracting Tm of ALKBH6 from Tm of ALKBH6 with 7methyl-GMP. The changes of Tm (ΔTm) were plotted against increasing concentrations of 7methyl-GMP and dissociation constant was determined by using one site specific binding formula of GraphPad Prism software.

ALKBH6 [6] = biological target: T2, ALKBH6; assay: Thermal shift analysis (DSF, SYPRO Orange); assay type: binding; conditions: from ΔTm vs ligand concentration; read-out: apparent dissociation constant
Procedure: as §3

ALKBH6 Y120A [7] = biological target: T3, ALKBH6 Y120A; assay: Intrinsic tryptophan fluorescence quenching (Stern-Volmer); assay type: binding
Procedure: (§4) All tryptophan fluorescence spectroscopy experiments were performed using a multimode plate reader (PerkinElmer). The excitation and emission wavelengths were fixed at 280 nm and 356 nm, respectively. To measure ALKBH6–ligand interactions, recombinant ALKBH6 (500 nM), and increasing concentrations of ligand (0–80 μM) were equilibrated in binding buffer (50 mM Hepes, pH 7.6, 300 mM KCl) for 1 h. For Stern–Volmer quenching analysis, the F0/F = 1 + KSV(L) formula was used, where, KSV is the Stern–Volmer constant, L is the concentration of the quencher, F0 and F represent the steady-state fluorescence intensities in the absence and presence of quencher, respectively. All the data were calculated with best-fit parameter values and 95% confidence intervals in GraphPad Prism software.

ALKBH6 E115A = biological target: T4, ALKBH6 E115A (Homo sapiens, UniProt Q3KRA9, E115A); assay: as above; assay type: binding
T4 construct: His-tag; made in house
Procedure: as §4

ALKBH6 [8] = biological target: T2, ALKBH6; assay: as above; assay type: binding; conditions: WT ALKBH6, 2OG omitted
Procedure: as §4

ALKBH6 [9] = biological target: T2, ALKBH6; assay: Uncoupled succinate production (SucCD colorimetric assay); assay type: biochemical; conditions: CoCl2 20 μM, no substrate
Procedure: The uncoupled succinate production reaction was set up in two steps as described before ([54]). In the initial step, WT ALKBH6 (5–20 μM) was incubated in dioxygenase reaction buffer (20 mM Hepes, pH 8.0, 0.2 mM 2OG, 2 mM ascorbate, 5 μM Fe(NH4)2(SO4)2) for 1 h at 37 °C to form succinate. Then the reaction mixture (50 μl) was mixed with recombinant sucCD (1 μM) in SucCD reaction buffer (2 mM MES, pH 6.5, 5 mM ATP 3.258 mM CoA, 50 mM MgCl2) and further incubated for 30 min at 37 °C. Finally, molybdate solution was added for colorimetric detection and the succinate concentration was detected from the standard curve. For inhibition, CoCl2 (20 μM) was used. The results were plotted and analyzed using GraphPad Prism (www.graphpad.com).

ALKBH3 = test system: ALKBH3; set-up: method as in PMID 28269980; conditions: cited from earlier work

T3 sequence (Q3KRA9 whole entry Y120A): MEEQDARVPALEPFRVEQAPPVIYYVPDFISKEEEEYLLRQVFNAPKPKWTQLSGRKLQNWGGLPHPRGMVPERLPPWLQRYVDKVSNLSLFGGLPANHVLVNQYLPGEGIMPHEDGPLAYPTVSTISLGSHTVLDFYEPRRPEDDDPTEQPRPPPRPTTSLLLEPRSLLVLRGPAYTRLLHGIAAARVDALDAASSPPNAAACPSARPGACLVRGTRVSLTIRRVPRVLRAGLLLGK
T2 sequence (Q3KRA9 whole entry): as the sequence (Q3KRA9 whole entry Y120A) above, with A120Y counted along it
T1 sequence (Q3KRA9 whole entry E115A): as the sequence (Q3KRA9 whole entry Y120A) above, with E115A, A120Y counted along it
T4 sequence (Q3KRA9 whole entry E115A): as the sequence (Q3KRA9 whole entry Y120A) above, with E115A, A120Y counted along it

Molecule: Sh #1: shRNA to ALKBH6, 5′ AGGAGTATTTGCTTCGACA 3′ in pSilencer 2.1-U6 puro vector (shRNA in pSilencer vector; only target-sense given)
reduction of ALKBH6 expression (knockdown) (ALKBH6 [1]): 75%

demethylation activity over time (ALKBH6 E115 mutant): comparable to WT ALKBH6 | formaldehyde release / demethylation by ALKBH6 (ALKBH6 [2]; FDH-coupled assay, tested as substrate): Formaldehyde release was observed | demethylation (HPLC end product) (ALKBH6 Y120A [3]): little demethylation | demethylation by ALKBH6 (HPLC) (ALKBH6 [4]): converted | ΔTm shift (ALKBH6 Y120A [5]): no significant ΔTm shift | Kd (ALKBH6 [6]): 620 nM | Stern-Volmer constant (Ksv) (ALKBH6 Y120A [7]): negative | Stern-Volmer constant (Ksv) (ALKBH6 E115A): 0.035 ± 0.008 µM⁻¹ | Stern-Volmer constant (Ksv) (ALKBH6 [8]): 0.036 ± 0.009 µM⁻¹
Molecule: C[n+]1cn([C@@H]2O[C@H](COP(=O)(O)O)[C@@H](O)[C@H]2O)c2nc(N)[nH]c(=O)c21 [7me-GMP, N-7-methyl-GMP]

Molecule: [Cl][Co][Cl] [Co(II), cobalt chloride, reference compound]
inhibition of ALKBH6-mediated demethylation (ALKBH6 [2]; me-dNMPs as substrate): completely inhibited | inhibition of uncoupled succinate production (ALKBH6 [9]): inhibited

Molecule: Sh #2: shRNA to ALKBH6, 5′ GCACCACCTGTAATCTACTAT 3′ in pSilencer 2.1-U6 puro vector (shRNA in pSilencer vector; only target-sense given)
reduction of ALKBH6 expression (knockdown) (ALKBH6 [1]): more than 90%

Molecule: Cn1c(=N)cc[nH]c1=O [3meC, N-3-methylcytosine]
kcat (ALKBH3): approximately 1.7 min^−1
